Assay results: US9758459B2, “Allosteric modulators of factor XIa as anticoagulant agents” (VIRGINIA COMMONWEALTH UNIVERSITY, priority 2012, dated 2017)
Several values for one entry are separate records, joined by “and”; a condition that tells them apart may be missing. Equal entries are not always repeated. Where two headings read alike, the source gives them in different places. One block for each compound: values may come before it.

Tests used:
Assay type in all cases: biochemical
human factor XIa = target: T1, human factor XIa (Homo sapiens, UniProt P03951); assay: Direct inhibition of factor XIa, chromogenic substrate S-2366 hydrolysis assay
T1 construct: purchased Haematologic Technologies (Essex Junction, Vt.); host or cells: human plasma
Experimental: Solvent A consisted of 25 mM n-hexylamine in water containing 0.1% (v/v) formic acid, while solvent B consisted of 25 mM n-hexylamine in acetonitrile-water mixture (3:1 v/v) containing 0.1% (v/v) formic acid. […] The sample was first monitored for absorbance in the range of 190-400 nm and then directly introduced into the mass spectrometer. ESI-MS detection was performed in positive ion mode for which the capillary voltage was 4 kV, cone voltage was 20 V, desolvation temperature was 350° C. and nitrogen gas flow was maintained at 650 L/hr. Mass scans were collected in the range of 1000-2048 amu within 0.25 s and several of these added to enhanced signal-to-noise ratio. Direct Inhibition of Factor XIa. […] After 10 min incubation, 5 μL factor XIa substrate (345 μM) was rapidly added and the residual FXIa activity was measured from the initial rate of increase in absorbance at 405 nm. […] Relative residual FXIa activity at each concentration of the inhibitor was calculated from the ratio of FXIa activity in the presence and absence of the inhibitor. Logistic equation 1 was used to fit the dose-dependence of residual protease activity to obtain the potency (IC50) and efficacy (ΔY) of inhibition.
Direct Inhibition of Factor XIa by Sulfated QAOs was performed as described in Example 1.
The ability of the sulfated inositol analogs to inhibit factor XIa was studied using the in vitro assay described in Example 1. In this assay, the factor XIa enzyme is anticipated to hydrolyze a particular peptide linkage in the corresponding peptide substrate releasing p-nitroaniline which absorbs at wavelength of 405 nm giving a line slope corresponds to the enzyme activity. The line slope of no inhibitor status is considered as a reference slope and it depends on the relative concentrations of factor XIa enzyme and its substrate. Factor XIa enzyme concentration was decided to get appropriate reference slope of approximately 25-35, whereas the substrate concentration was set to be larger than its affinity to factor XIa enzyme under equilibrium condition, Km. In presence of potential factor XIa inhibitor, the enzyme capacity to hydrolyze the designated peptide linkage in the substrate gets diminished or completely abolished depending on the inhibitor concentration and efficacy. […] Such decreased slope reflects a drop in the catalytic enzyme activity of factor XIa.

human plasma [1] = assay: Prothrombin time (PT) plasma clotting assay; conditions: for 2 × PT: concentration doubling clotting time
Experimental: (§1) Plasma clotting assays, prothrombin and activated partial thromboplastin time (PT and APTT, respectively), are routinely used to assess the anticoagulation potential of new enzyme inhibitors in an in vitro setting. Whereas PT measures the effect of an inhibitor on the extrinsic pathway of coagulation, APTT measures the effect on the intrinsic pathway.
(§2) Prothrombin Time (PT) and Activated Partial Thromboplastin Time (APTT) were assessed as described in Example 1.

human plasma [2] = assay: Activated partial thromboplastin time (APTT) plasma clotting assay; conditions: human plasma, concentration doubling clotting time
Experimental: as §1, §2

FXIa wild type (FXIa-WT) = target: T2, FXIa wild type (FXIa-WT) (Homo sapiens, UniProt P03951); assay: Michaelis-Menten kinetics of S-2366 hydrolysis by full-length factor XIa; conditions: 14S 135 μM, pH 7.4, 37° C.
T2 construct: made in house; host or cells: HEK-293
Experimental: Plasma FIX (500 nM) was incubated with human FXIa (3 nM) in 50 mM Hepes buffer, pH 7.4, containing 125 mM NaCl, 5 mM CaCl2, and 0.1 mg/mL bovine serum albumin at 24° C. […] The primary antibody was goat anti-human FIX polyclonal IgG (Enzyme Research Laboratories, South Bend, Tenn.), and the secondary antibody was horseradish peroxidase-conjugated anti-goat IgG. Detection was by chemiluminescence. […] The inhibition profile was determined over a range of inhibitor concentrations to determine the IC50 of the enzyme-inhibitor complex. The KM of the substrate for its enzyme was used to identify the concentration of the substrate to be used for inhibition studies. […] Active site concentrations for preparations of FXIa were determined by titrations with human antithrombin in an S-2366 cleavage assay. The reaction was monitored using a SpectraMax 340 microtiter plate reader (Molecular Devices Corp., Sunnyvale, Calif.) with a reaction volume of 100 μL and path length of 3 mm. Each assay was performed in triplicate. The concentration of S-2366 was measured using an absorption coefficient of 8,266 M-1cm-1 at λ342 nm, while the free p-nitroaniline concentration was calculated using an absorption coefficient of 9,933 M cm^−1 at λ405 nm. The data was fitted using the standard Michaelis-Menten equation to determine the KM and VMAX. Results

[3] = sulfated QAOs, pH 7.4, 37° C., read-out: IC50 (converted)

T1 sequence (P03951 19-387 limits assumed): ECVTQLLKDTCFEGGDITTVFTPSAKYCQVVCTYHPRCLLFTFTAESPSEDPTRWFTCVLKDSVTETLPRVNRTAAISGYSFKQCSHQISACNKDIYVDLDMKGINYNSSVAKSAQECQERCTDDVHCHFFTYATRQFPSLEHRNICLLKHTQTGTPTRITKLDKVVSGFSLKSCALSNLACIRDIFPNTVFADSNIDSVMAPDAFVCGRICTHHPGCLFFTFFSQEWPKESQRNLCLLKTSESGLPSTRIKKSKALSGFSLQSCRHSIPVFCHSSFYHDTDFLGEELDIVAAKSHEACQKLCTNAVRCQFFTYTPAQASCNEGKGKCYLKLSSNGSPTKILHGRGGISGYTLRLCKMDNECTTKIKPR
T1 sequence (P03951 388-625 limits assumed): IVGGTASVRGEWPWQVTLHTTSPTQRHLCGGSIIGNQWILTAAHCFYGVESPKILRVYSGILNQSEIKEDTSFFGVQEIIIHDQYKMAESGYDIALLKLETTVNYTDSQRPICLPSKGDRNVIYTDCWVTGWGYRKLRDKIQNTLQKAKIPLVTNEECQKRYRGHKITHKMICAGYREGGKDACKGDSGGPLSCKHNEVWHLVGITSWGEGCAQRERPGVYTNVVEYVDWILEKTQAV
T2 sequence (P03951 19-387 limits assumed): as the sequence (P03951 19-387 limits assumed) above
T2 sequence (P03951 388-625 limits assumed): as the sequence (P03951 388-625 limits assumed) above

- ΔY % (efficacy) (human factor XIa; sulfated QAOs): 89 ± 2%
- IC50 (human factor XIa; [3]): 59 µM
Structure (SMILES): O=c1c2ccccc2nc(-c2ccc(OS(=O)(=O)O)cc2)n1CCCCCn1cc(Cn2c(-c3ccc(OS(=O)(=O)O)cc3)nc3ccccc3c2=O)nn1 [Inhibitor 15S]
- 2 × PT (human plasma [1]): 1684 µM
- 2 × APTT (human plasma [2]): 1062 µM

- ΔY % (efficacy) (human factor XIa; sulfated QAOs): 88 ± 5%
- IC50 (human factor XIa; [3]): 182 ± 1 µM
Structure (SMILES): COc1cc(-c2nc3ccccc3c(=O)n2CCCCn2cc(Cn3c(-c4cccc(OS(=O)(=O)O)c4)nc4ccccc4c3=O)nn2)ccc1OS(=O)(=O)O [Inhibitor 17S]

- ΔY % (efficacy) (human factor XIa; sulfated QAOs): 93 ± 2%
- IC50 (human factor XIa; [3]): 213 ± 2 µM
Structure (SMILES): O=c1c2ccccc2nc(-c2cccc(OS(=O)(=O)O)c2)n1CCCCn1cc(Cn2c(-c3cc(OS(=O)(=O)O)cc(OS(=O)(=O)O)c3)nc3ccccc3c2=O)nn1 [Inhibitor 18S]

- ΔY % (efficacy) (human factor XIa; sulfated QAOs): 91 ± 2%
- IC50 (human factor XIa; [3]): 273 ± 3 µM
Structure (SMILES): CC(=O)Oc1cc(OS(=O)(=O)O)cc(-c2nc3ccccc3c(=O)n2CCCCn2cc(Cn3c(-c4cc(OS(=O)(=O)O)cc(OS(=O)(=O)O)c4)nc4ccccc4c3=O)nn2)c1 [Inhibitor 19S]

- IC50 (human factor XIa; [3]): > 1000 µM
Structure (SMILES): O=c1c2ccccc2nc(-c2cc(OS(=O)(=O)O)cc(OS(=O)(=O)O)c2)n1CCCCn1cc(Cn2c(-c3cc(OS(=O)(=O)O)cc(OS(=O)(=O)O)c3)nc3ccccc3c2=O)nn1 [Inhibitor 20S]

- IC50 (human factor XIa; [3]): > 1000 µM
Structure (SMILES): COc1cc(OS(=O)(=O)O)cc2oc(-c3ccc(OS(=O)(=O)O)c(OCc4cn(CCCCn5c(-c6cccc(OS(=O)(=O)O)c6)nc6ccccc6c5=O)nn4)c3)c(OS(=O)(=O)O)c(=O)c12 [Inhibitor 25S]

- IC50 (human factor XIa; [3]): 216 µM
Structure (SMILES): COc1cc(-c2nc3ccccc3c(=O)n2CCCCn2cc(COc3cc(-c4oc5cc(OS(=O)(=O)O)cc(OC)c5c(=O)c4OS(=O)(=O)O)ccc3OS(=O)(=O)O)nn2)ccc1OS(=O)(=O)O [Inhibitor 26S]

- ΔY % (efficacy) (human factor XIa; sulfated QAOs): 98 ± 3%
Structure (SMILES): O=c1c2ccccc2nc(-c2ccc(OS(=O)(=O)O)cc2)n1Cc1cn(CCn2cc(Cn3c(-c4ccc(OS(=O)(=O)O)cc4)nc4ccccc4c3=O)nn2)nn1 [Inhibitor 28S]

- ΔY % (efficacy) (human factor XIa; sulfated QAOs): 94 ± 1%
- IC50 (human factor XIa; [3]): 94 µM and 90 µM
Structure (SMILES): O=c1c2ccccc2nc(-c2ccc(OS(=O)(=O)O)cc2)n1CCCCCn1nncc1Cn1c(-c2ccc(OS(=O)(=O)O)cc2)nc2ccccc2c1=O [Inhibitor 29S]

- IC50 (human factor XIa; read-out: FXIa-IC50): 0.09 µM
Structure (SMILES): O=C(OC1C(OC(=O)c2cc(OS(=O)(=O)O)cc(OS(=O)(=O)O)c2)C(OC(=O)c2cc(OS(=O)(=O)O)cc(OS(=O)(=O)O)c2)C(OC(=O)c2cc(OS(=O)(=O)O)cc(OS(=O)(=O)O)c2)C(OC(=O)c2cc(OS(=O)(=O)O)cc(OS(=O)(=O)O)c2)C1OC(=O)c1cc(OS(=O)(=O)O)cc(OS(=O)(=O)O)c1)c1cc(OS(=O)(=O)O)cc(OS(=O)(=O)O)c1 (stereo not drawn) [SMI, Sulfated hexa-substituted myo-inositol]

The next lines start with the compound.

Structure (SMILES): O=C(OC[C@H]1O[C@@H](OC(=O)c2cc(O)c(O)c(O)c2)[C@H](OC(=O)c2cc(O)c(O)c(O)c2)[C@@H](OC(=O)c2cc(O)c(O)c(O)c2)[C@@H]1OC(=O)c1cc(O)c(O)c(O)c1)c1cc(O)c(O)c(O)c1 [Inhibitor 5, pentagalloyl glucopyranoside, reference compound]
- inhibition of FXIa proteolytic activity (human factor XIa; highest concentration tested (300 μM)): completely inactive

Structure (SMILES): CC(=O)Oc1cccc(-c2nc3ccccc3c(=O)n2Cc2cn(CCCCn3c(-c4cccc(OS(=O)(=O)O)c4)nc4ccccc4c3=O)nn2)c1 [Inhibitor 7S]
- factor XIa inhibition (in words) (human factor XIa; pH 7.4, 37° C.): inactive
- IC50 (human factor XIa; [3]): > 1000 µM

Structure (SMILES): O=c1c2ccccc2nc(-c2cccc(OS(=O)(=O)O)c2)n1CCCCn1cc(Cn2c(-c3cccc(OS(=O)(=O)O)c3)nc3ccccc3c2=O)nn1 [Inhibitor 8S]
- ΔY % (efficacy) (human factor XIa; sulfated QAOs): 100 ± 6%

Structure (SMILES): CC(=O)Oc1cc(OS(=O)(=O)O)cc(-c2nc3ccccc3c(=O)n2Cc2cn(CCCCn3c(-c4cccc(OS(=O)(=O)O)c4)nc4ccccc4c3=O)nn2)c1 [Inhibitor 9S]
- ΔY % (efficacy) (human factor XIa; sulfated QAOs): 96 ± 1%
- IC50 (human factor XIa; [3]): 153 µM

Structure (SMILES): COc1cc(-c2nc3ccccc3c(=O)n2CCCCn2cc(Cn3c(-c4ccc(OS(=O)(=O)O)c(OC)c4)nc4ccccc4c3=O)nn2)ccc1OS(=O)(=O)O [Inhibitor 10S]
- ΔY % (efficacy) (human factor XIa; sulfated QAOs): 95 ± 1%
- IC50 (human factor XIa; [3]): 139 ± 1 µM

Structure (SMILES): O=c1c2ccccc2nc(-c2cccc(OS(=O)(=O)O)c2)n1CCCn1cc(Cn2c(-c3cccc(OS(=O)(=O)O)c3)nc3ccccc3c2=O)nn1 [Inhibitor 11S]
- ΔY % (efficacy) (human factor XIa; sulfated QAOs): 91 ± 4%

Structure (SMILES): O=c1c2ccccc2nc(-c2ccc(OS(=O)(=O)O)cc2)n1CCCCn1cc(Cn2c(-c3cccc(OS(=O)(=O)O)c3)nc3ccccc3c2=O)nn1 [Inhibitor 12S]
- ΔY % (efficacy) (human factor XIa; sulfated QAOs): 88 ± 3%
- IC50 (human factor XIa; [3]): 159 ± 2 µM

Structure (SMILES): O=c1c2ccccc2nc(-c2ccc(OS(=O)(=O)O)cc2)n1CCCCn1cc(Cn2c(-c3ccc(OS(=O)(=O)O)cc3)nc3ccccc3c2=O)nn1 [Inhibitor 13S]
- concentration for 2-fold increase in PT (human plasma [1]): about 1.12 mM
- 2 × PT (human plasma [1]): 1119 µM
- ΔY % (efficacy) (human factor XIa; sulfated QAOs): 91 ± 2%
- IC50 (human factor XIa; [3]): 82 µM and ~80 µM
- 2 × APTT (human plasma [2]): 979 µM

Structure (SMILES): O=c1c2ccccc2nc(-c2cccc(OS(=O)(=O)O)c2)n1CCCCn1cc(Cn2c(-c3ccc(OS(=O)(=O)O)cc3)nc3ccccc3c2=O)nn1 [Inhibitor 14S]
- ΔY % (efficacy) (human factor XIa; sulfated QAOs): 103 ± 5%
- IC50 (human factor XIa; [3]): 91 µM
- VMAX (FXIa wild type (FXIa-WT)): 5.1±0.5 mAU/min
